Data: patent publication US12134610B2, “Somatostatin subtype-2 receptor (SST2R) targeted therapeutics and uses thereof” (priority 2022, dated 2024)
Like-named read-outs stand apart in the source and are kept apart here.

Assays:
Format in all cases: cell-based
[1] = system: NCI-H524 (ATCC) human small cell lung cancer cells
Procedure: SMDCs of the present invention were assessed in an in vitro assay evaluating the inhibition of cell proliferation. NCI-H524 (ATCC) human small cell lung cancer cells were plated in 96-well V-bottom plates (Costar) at a concentration of 5,000 cells/well. 24 h later, the cells were treated for 2 h with a SMDC. SMDC starting dose was 1 uM and two-fold serial dilutions were done for a total of 11 points. After 2 h of treatment, cells were spun down, and the drug-containing media was removed, and fresh complete media was added and used to resuspend the cells, which were spun again. After removal of the media, the cells were resuspended in complete medium and incubated for an additional 70 h. Cell proliferation was assessed using the CellTiter Glo Assay according to the standard protocol (Promega). Luminescence was measured using a TECAN plate reader. Percent proliferation inhibition was calculated using the following formula: % inhibition=(Luminescence Control−Luminescence Treatment)/Luminescence Control*100. IC50 curves were generated using the nonlinear regression analysis (four-parameter) with GraphPad Prism 9.

[2] = target: T1, human somatostatin receptor subtype 2 (Homo sapiens, UniProt P30874); assay: Functional cAMP assay for SSTR2 agonists (HTRF) in CHO-K1 cells; details: CHO-K1 cells stably expressing human SST2, 20 min
T1 construct: expressed in transfected cells
Description: General overview: All five SSTR subtypes are Gi coupled G-protein coupled receptors (GPCRs) that lead to decreases in intracellular cyclic AMP (cAMP) when activated by an agonist. Therefore, measurement of intracellular cAMP levels can be used to assess whether compounds of the invention are agonists of SSTR subtypes (John Kelly, Troy Stevens, W. Joseph Thompson, and Roland Seifert, Current Protocols in Pharmacology, 2005, 2.2.1-2.2). One example of an intracellular cAMP assay is described below.
Functional Assay for SSTR2 Agonists
Four days prior to the assay, 2,000 Chinese hamster ovary cells (CHO-K1, ATCC #CCL-61) stably expressing the human somatostatin receptor subtype 2 are plated in each well of a 96-well tissue culture-treated plate in Ham's F12 growth media (ThermoFisher #10-080-CM) supplemented with 10% donor bovine serum (Gemini Bio-Products #100-506), 100 U/mL penicillin; 100 ug/mL streptomycin; 2 mM L-glutamine (Gemini Bio-Products #400-110) and 0.2 mg/mL hygromycin B (GoldBio #31282-04-9). The cells are cultured at 37° C., 5% CO2 and 95% humidity. cAMP is measured with HTRF dynamic cAMP assay (Cisbio, #62AM5PEJ) per manufacturer's instructions. On the day of the assay, the media is aspirated and the cells are treated with 50 μL of stimulation buffer supplemented with 10.2 mM 3-Isobutyl-1-methylxanthine (IBMX, Millipore Sigma #15879) and 1.6 μM NKH477 (Tocris #1603), plus various dilutions of SMDCs of the present invention. The cells are incubated for 20 minutes at 37° C. (the final concentration of the compounds of the invention are typically 0-10,000 nM). The cells are treated with 50 μL of lysis buffer (HRTF cAMP kit, Cisbio) and incubated at room temperature for 30 minutes with rotary shaking at 600 rpm, and then diluted with 150 μL of stimulation buffer and shaken for an additional five minutes at 300 rpm. The lysate is transferred to 384-well plates and incubated for 1-24 hours at room temperature, and cAMP accumulation is detected by d2-labeled cAMP and Anti-cAMP-Cryptate. The time-resolved fluorescent signal is read using a m1000 Pro (Tecan) or CLARIOStar (BMG Labtech) microplate reader, where the samples are excited with light at 340 nm and emission light is measured at 620 nm and 665 nm. The data is expressed as a calculation of the fluorescence ratio (665 nm/620 nm). The intracellular cAMP concentrations are calculated by regression to a standard curve and are plotted vs. the concentration of the compounds of the invention. The EC50 of the compounds are calculated using standard methods. All data manipulations are in GraphPad Prism v9 (GraphPad, San Diego, CA).

SST2 = target: T2, SST2 (Homo sapiens, UniProt P30874); assay: PathHunter CHO-K1 SST2 internalization assay; details: PathHunter CHO-K1 SST2, 90 min
T2 construct: host or cells: PathHunter CHO-K1 SST2 cells
Procedure: SMDCs of the present invention were assessed in vitro using the human PathHunter CHO-K1 SST2 β-arrestin2 and PathHunter CHO-K1 SST2 Internalization Assays from DiscoverX. The CHO-K cells were seeded in 20 μLs of cell culture medium in a white-walled 384 well tissue culture-compatible plate at a density of 2500 cells/well. After a 48-hour incubation, cells were treated with 5 μLs of a 1:3 serially diluted SST2 SMDC prepared at 5× concentration with a final top compound concentration of 10 uM for 90 min at 37 C and in 5% CO2. 11 dilutions were tested as well as one treatment that was compound free. After incubation, the media containing treatments were discarded and 20 μL of a working solution of Beta-Glo from Promega Beta-Glo Assay System was added to each well. The plate was then incubated for 60 min at room temperature in the dark. Luminescence was measured using a Tecan plate reader. IC50 curves were generated using the nonlinear regression analysis (four-parameters) with GraphPad Prism 9. Results were the average of duplicates and are corrected for background.

T1 sequence (P30874 whole entry): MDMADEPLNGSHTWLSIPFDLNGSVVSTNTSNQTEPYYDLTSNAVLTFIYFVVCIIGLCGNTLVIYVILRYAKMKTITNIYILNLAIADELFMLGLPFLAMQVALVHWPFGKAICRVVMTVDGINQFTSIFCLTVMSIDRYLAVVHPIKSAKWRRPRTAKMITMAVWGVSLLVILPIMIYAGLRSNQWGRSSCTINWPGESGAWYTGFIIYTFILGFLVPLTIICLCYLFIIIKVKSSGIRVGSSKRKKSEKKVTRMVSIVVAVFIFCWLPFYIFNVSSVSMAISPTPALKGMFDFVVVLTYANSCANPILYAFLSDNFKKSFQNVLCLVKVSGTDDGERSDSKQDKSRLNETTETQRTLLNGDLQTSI
T2 sequence (P30874 whole entry): as above

Compound | EC50 ([1]; 2 h treatment, washout, additional 70 h, read-out: H524 EC50) | EC50 ([2]; hSST2 cAMP Avg EC50 (nM)) | EC50 (SST2; Internalization EC50 (nM)) | EC50 ([1]; 2 h) | EC50 ([2]; read-out: hSST2 cAMP Avg EC50) | EC50 (SST2; read-out: Internalization EC50)
CC[C@@]1(O)C(=O)OCc2c1cc1n(c2=O)Cc2c-1nc1cc(F)c(C)c3c1c2[C@@H](NC(=O)OCc1ccc(NC(=O)[C@H](CCCNC(N)=O)NC(=O)[C@@H](NC(=O)CCOCCOCCOCCOCCC(=O)NCCNc2ncc(-c4cc(C)cc(F)c4)c(N4CCC(N)CC4)c2-c2nc4ccc(Cl)cc4[nH]2)C(C)C)cc1)CC3 [Compound 38] | 59.4 nM | 0.11 nM | 1 nM |  |  | 
CC[C@H](C)[C@@H]([C@@H](CC(=O)N1CCC[C@H]1[C@H](OC)[C@@H](C)C(=O)N[C@H](C)[C@@H](O)c1ccccc1)OC)N(C)C(=O)[C@@H](NC(=O)[C@H](C(C)C)N(C)C(=O)OCc1ccc(NC(=O)[C@H](CCCNC(N)=O)NC(=O)[C@@H](NC(=O)[C@H](CS(N)(=O)=O)NC(=O)CCOCCC(=O)NCCNc2ncc(-c3cc(C)cc(F)c3)c(N3CCC(N)CC3)c2-c2nc3ccc(Cl)cc3[nH]2)C(C)C)cc1C(=O)NCCN)C(C)C [Compound 159] |  |  |  | 2.6 nM | 0.3 nM | 10 nM
CC[C@H](C)[C@@H]([C@@H](CC(=O)N1CCC[C@H]1[C@H](OC)[C@@H](C)C(=O)N[C@H](C)[C@@H](O)c1ccccc1)OC)N(C)C(=O)[C@@H](NC(=O)[C@H](C(C)C)N(C)C(=O)OCc1ccc(NC(=O)[C@H](CCCNC(N)=O)NC(=O)[C@@H](NC(=O)CCOCCNC(=O)CN2CCN(CC(=O)O)CCN(CC(=O)NCCNc3ncc(-c4cc(C)cc(F)c4)c(N4CCC(N)CC4)c3-c3nc4ccc(Cl)cc4[nH]3)CC2)C(C)C)cc1)C(C)C [Compound 37] |  |  |  | 102 nM | 0.071 nM | 13.7 nM
CC[C@H](C)[C@@H]([C@@H](CC(=O)N1CCC[C@H]1[C@H](OC)[C@@H](C)C(=O)N[C@H](C)[C@@H](O)c1ccccc1)OC)N(C)C(=O)[C@@H](NC(=O)[C@H](C(C)C)N(C)C(=O)OCc1ccc(NC(=O)[C@H](C)NC(=O)[C@@H](NC(=O)CCOCCNCCNc2ncc(-c3cc(C)cc(F)c3)c(N3CCC(N)CC3)c2-c2nc3ccc(Cl)cc3[nH]2)C(C)C)cc1C(=O)NCCN)C(C)C [Compound 89] |  |  |  | 60 nM | 0.71 nM | 66 nM
CCC(C)C(C(CC(=O)N1CCCC1C(OC)C(C)C(=O)NC(C)C(O)c1ccccc1)OC)N(C)C(=O)C(NC(=O)C(C(C)C)N(C)C(=O)OCc1ccc(NC(=O)[C@H](CCCNC(N)=O)NC(=O)[C@@H](NC(=O)CCOCCOCCOCCOCCOCCOCCOCCOCCC(=O)NCCNc2ncc(-c3cc(C)cc(F)c3)c(N3CCC(N)CC3)c2-c2nc3ccc(Cl)cc3[nH]2)C(C)C)cc1)C(C)C (stereo in doubt) [Compound 27] |  |  |  | 65.5 nM | 0.2 nM | 27.8 nM
CC[C@H](C)[C@@H]([C@@H](CC(=O)N1CCC[C@H]1[C@H](OC)[C@@H](C)C(=O)N[C@H](C)[C@@H](O)c1ccccc1)OC)N(C)C(=O)[C@@H](NC(=O)[C@H](C(C)C)N(C)C(=O)OCc1ccc2cc1C(=O)NCCNC(=O)CC[C@H](NC(=O)CCOCCC(=O)NCCNc1ncc(-c3cc(C)cc(F)c3)c(N3CCC(N)CC3)c1-c1nc3ccc(Cl)cc3[nH]1)C(=O)N[C@@H](C(C)C)C(=O)N[C@@H](CCCNC(N)=O)C(=O)N2)C(C)C [Compound 59] |  |  |  | 14 nM | 0.35 nM | 6.5 nM
CCC(C)C(C(CC(=O)N1CCCC1C(OC)C(C)C(=O)NC(C)C(O)c1ccccc1)OC)N(C)C(=O)C(NC(=O)C(C(C)C)N(C)C(=O)OCc1ccc(NC(=O)CNC(=O)[C@H](Cc2ccccc2)NC(=O)CNC(=O)CNC(=O)CCOCCC(=O)NCCNc2ncc(-c3cc(C)cc(F)c3)c(N3CCC(N)CC3)c2-c2nc3ccc(Cl)cc3[nH]2)cc1)C(C)C (stereo in doubt) [Compound 35] |  |  |  | 17.4 nM | 0.58 nM | 6.1 nM
CC[C@H](C)[C@@H]([C@@H](CC(=O)N1CCC[C@H]1[C@H](OC)[C@@H](C)C(=O)N[C@H](C)[C@@H](O)c1ccccc1)OC)N(C)C(=O)[C@@H](NC(=O)[C@H](C(C)C)N(C)C(=O)OCc1ccc(NC(=O)[C@H](C)NC(=O)[C@@H](NC(=O)[C@H](CCC(=O)O)NC(=O)CCCCCC(=O)NCCNc2ncc(-c3cc(C)cc(F)c3)c(N3CCC(N)CC3)c2-c2nc3ccc(Cl)cc3[nH]2)C(C)C)cc1C(=O)NCCN)C(C)C [Compound 120] |  |  |  | 2.4 nM | 0.19 nM | 2.7 nM
CC[C@H](C)[C@@H]([C@@H](CC(=O)N1CCC[C@H]1[C@H](OC)[C@@H](C)C(=O)N[C@H](C)[C@@H](O)c1ccccc1)OC)N(C)C(=O)[C@@H](NC(=O)[C@H](C(C)C)N(C)C(=O)OCc1ccc(NC(=O)[C@H](CCCNC(N)=O)NC(=O)[C@@H](NC(=O)[C@H](CS(=O)(=O)O)NC(=O)CCOCCOCCOCCOCCC(=O)NCCNc2ncc(-c3cc(C)cc(F)c3)c(N3CCC(N)CC3)c2-c2nc3ccc(Cl)cc3[nH]2)C(C)C)cc1)C(C)C [Compound 45] |  |  |  | 32 nM | 0.12 nM | 21 nM
CC[C@H](C)[C@@H]([C@@H](CC(=O)N1CCC[C@H]1[C@H](OC)[C@@H](C)C(=O)N[C@H](C)[C@@H](O)c1ccccc1)OC)N(C)C(=O)[C@@H](NC(=O)[C@H](C(C)C)N(C)C(=O)OCc1ccc(NC(=O)[C@H](CCCNC(N)=O)NC(=O)[C@@H](NC(=O)[C@H](CCC(N)=O)NC(=O)CCOCCC(=O)NCCNc2ncc(-c3cc(C)cc(F)c3)c(N3CCC(N)CC3)c2-c2nc3ccc(Cl)cc3[nH]2)C(C)C)c(O[C@@H]2O[C@H](C(=O)O)[C@@H](O)[C@H](O)[C@H]2O)c1)C(C)C [Compound 151] |  |  |  | 8.9 nM | 0.28 nM | 2.2 nM
CC[C@H](C)[C@@H]([C@@H](CC(=O)N1CCC[C@H]1[C@H](OC)[C@@H](C)C(=O)N[C@H](C)[C@@H](O)c1ccccc1)OC)N(C)C(=O)[C@@H](NC(=O)[C@H](C(C)C)N(C)C(=O)OCc1ccc(NC(=O)[C@H](CCCNC(N)=O)NC(=O)[C@@H](NC(=O)CCCCC(=O)NCCNc2ncc(-c3cc(C)cc(F)c3)c(N3CCC(N)CC3)c2-c2nc3ccc(Cl)cc3[nH]2)C(C)C)c(O[C@@H]2O[C@H](C(=O)O)[C@@H](O)[C@H](O)[C@H]2O)c1)C(C)C [Compound 133] |  |  |  | 34 nM | 0.11 nM | 6 nM
CC[C@H](C)[C@@H]([C@@H](CC(=O)N1CCC[C@H]1[C@H](OC)[C@@H](C)C(=O)N[C@H](C)[C@@H](O)c1ccccc1)OC)N(C)C(=O)[C@@H](NC(=O)[C@H](C(C)C)N(C)C(=O)OCc1ccc(NC(=O)[C@H](C)NC(=O)[C@@H](NC(=O)[C@H](CCC(N)=O)NC(=O)CCOCCC(=O)NCCNc2ncc(-c3cc(C)cc(F)c3)c(N3CCC(N)CC3)c2-c2nc3ccc(Cl)cc3[nH]2)C(C)C)c(O[C@@H]2O[C@H](C(=O)O)[C@@H](O)[C@H](O)[C@H]2O)c1)C(C)C [Compound 146] |  |  |  | 4.8 nM | 0.072 nM | 2.1 nM
